Experimental data taken from patent publication US10722471B2, “Galenic formulations of organic compounds” (Novartis AG, priority 2016, dated 2020).

Assay: Relative bioavailability and food effect of 200 mg LCZ696 mini-tablets vs 200 mg FMI tablet; randomized, open-label, single dose, crossover study;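 note: crossover design with one dose per period, healthy volunteers, 40 enrolled and 39 completing the study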
Conditions: label = analyte; for extent of absorption (AUCs) with a high fat meal: LCZ696 200 mg mini-tablets sprinkled on pudding; for Cmax, geometric mean ratio, Mini tablets vs FMI tablet (Fasting) / AUCinf, geometric mean ratio, Mini tablets vs FMI tablet (Fasting) / AUClast, geometric mean ratio, Mini tablets vs FMI tablet (Fasting) / Cmax, geometric mean ratio, Pudding + High fat meal vs Pudding (Mini tablets) / AUCinf, geometric mean ratio, Pudding + High fat meal vs Pudding (Mini tablets) / AUClast, geometric mean ratio, Pudding + High fat meal vs Pudding (Mini tablets) / Cmax, geometric mean ratio, Pudding vs fasting (Mini tablets) / AUCinf, geometric mean ratio, Pudding vs fasting (Mini tablets) / AUClast, geometric mean ratio, Pudding vs fasting (Mini tablets): LCZ696 200 mg single oral dose, healthy subjects; for Cmax, geometric mean ratio, Mini tablets vs FMI tablet (Fasting) / AUCinf, geometric mean ratio, Mini tablets vs FMI tablet (Fasting) / AUClast, geometric mean ratio, Mini tablets vs FMI tablet (Fasting): test minitablets / reference FMI tablet; for Cmax, geometric mean ratio, Mini tablets vs FMI tablet (Fasting) / Cmax, geometric mean ratio, Pudding + High fat meal vs Pudding (Mini tablets) / Cmax, geometric mean ratio, Pudding vs fasting (Mini tablets): parameter head prints ng/ml; for AUCinf, geometric mean ratio, Mini tablets vs FMI tablet (Fasting) / AUClast, geometric mean ratio, Mini tablets vs FMI tablet (Fasting) / AUCinf, geometric mean ratio, Pudding + High fat meal vs Pudding (Mini tablets) / AUClast, geometric mean ratio, Pudding + High fat meal vs Pudding (Mini tablets) / AUCinf, geometric mean ratio, Pudding vs fasting (Mini tablets) / AUClast, geometric mean ratio, Pudding vs fasting (Mini tablets): parameter head prints ng·h/ml; for Cmax, geometric mean ratio, Pudding + High fat meal vs Pudding (Mini tablets) / AUCinf, geometric mean ratio, Pudding + High fat meal vs Pudding (Mini tablets) / AUClast, geometric mean ratio, Pudding + High fat meal vs Pudding (Mini tablets): test minitablets on pudding + high fat meal / reference minitablets with pudding; for Cmax, geometric mean ratio, Pudding vs fasting (Mini tablets) / AUCinf, geometric mean ratio, Pudding vs fasting (Mini tablets) / AUClast, geometric mean ratio, Pudding vs fasting (Mini tablets): test minitablets with pudding / reference minitablets; for decrease of Cmax with a high fat meal: single dose LCZ696 200 mg mini-tablets sprinkled on pudding

Row | SMILES | extent of absorption (AUCs) with a high fat meal | Cmax, geometric mean ratio, Mini tablets vs FMI tablet (Fasting) | AUCinf, geometric mean ratio, Mini tablets vs FMI tablet (Fasting) | AUClast, geometric mean ratio, Mini tablets vs FMI tablet (Fasting) | Cmax, geometric mean ratio, Pudding + High fat meal vs Pudding (Mini tablets) | AUCinf, geometric mean ratio, Pudding + High fat meal vs Pudding (Mini tablets) | AUClast, geometric mean ratio, Pudding + High fat meal vs Pudding (Mini tablets) | Cmax, geometric mean ratio, Pudding vs fasting (Mini tablets) | AUCinf, geometric mean ratio, Pudding vs fasting (Mini tablets) | AUClast, geometric mean ratio, Pudding vs fasting (Mini tablets) | decrease of Cmax with a high fat meal [%]
1 | C[C@H](C[C@@H](Cc1ccc(-c2ccccc2)cc1)NC(=O)CCC(=O)O)C(=O)O [LBQ657, (2R,4S)-5-biphenyl-4-yl-4-(3-carboxy-propionylamino)-2-methyl-pentanoic acid] | comparable | 0.95 | 0.98 | 0.98 | 0.81 | 1.02 | 1.02 | 0.99 | 1.01 | 1.01 | 19
2 | CCOC(=O)[C@H](C)C[C@@H](Cc1ccc(-c2ccccc2)cc1)NC(=O)CCC(=O)O [Sacubitril, (2R,4S)-5-biphenyl-4-yl-4-(3-carboxy-propionylamino)-2-methyl-pentanoic acid ethyl ester] | comparable | 0.94 | 0.96 | 0.96 | 0.4 | 1.01 | 1.00 | 1.00 | 1.04 | 1.04 | 60
3 | CCCCC(=O)N(Cc1ccc(-c2ccccc2-c2nnn[nH]2)cc1)[C@H](C(=O)O)C(C)C [Valsartan, S—N-valeryl-N-{[2′-(1H-tetrazole-5-yl)-biphenyl-4-yl]-methyl}-valine] | – | 1.09 | 1.11 | 1.11 | 0.43 | 0.6 | 0.59 | 1.02 | 1.02 | 1.04 | 57
